pIC50: −log10 of the molar value.
Molecular target: [Pyruvate dehydrogenase (acetyl-transferring)] kinase isozyme 1, mitochondrial (Homo sapiens, UniProt Q15118)
Test: Binding affinity to pyruvate dehydrogenase kinase 1 (unknown origin) incubated for 90 mins by VER-00160364 probe based fluorescence polarization assay

[Pyruvate dehydrogenase (acetyl-transferring)] kinase isozyme 1, mitochondrial, sequence (Q15118 whole entry): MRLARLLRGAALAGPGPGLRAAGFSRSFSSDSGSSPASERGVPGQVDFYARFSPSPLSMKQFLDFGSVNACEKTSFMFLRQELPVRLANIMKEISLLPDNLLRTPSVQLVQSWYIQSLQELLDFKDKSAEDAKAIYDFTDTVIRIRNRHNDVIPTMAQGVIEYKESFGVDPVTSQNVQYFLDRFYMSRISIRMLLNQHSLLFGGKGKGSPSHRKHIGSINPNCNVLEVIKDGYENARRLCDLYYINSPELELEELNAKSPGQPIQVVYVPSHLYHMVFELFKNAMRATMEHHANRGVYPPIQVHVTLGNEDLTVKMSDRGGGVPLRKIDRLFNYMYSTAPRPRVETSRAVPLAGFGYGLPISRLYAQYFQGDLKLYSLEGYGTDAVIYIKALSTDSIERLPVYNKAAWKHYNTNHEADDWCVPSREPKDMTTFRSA

Compound | pIC50
O=C(c1ccc(O)cc1O)N(Cc1ccccc1)c1ccc(-c2nc3ccccc3nc2C(F)(F)F)cc1 | 6.00
CN(Cc1cccc2ccccc12)C(=O)c1ccc(N(Cc2ccsc2)C(=O)c2ccc(O)cc2O)cc1 | 6.00
COc1cc2ncnc(-c3ccc(N(Cc4cccnc4)C(=O)c4ccc(O)cc4O)cc3)c2cc1OC | 6.00
NC(=O)c1nc(-c2ccc(N(Cc3ccccc3)C(=O)c3ccc(O)cc3O)cc2)c2ccccc2n1 | 5.00
O=C(NCc1ccccc1)Nc1ccc(N(Cc2ccccc2)C(=O)c2ccc(O)cc2O)cc1 | 6.00
Cc1cnc(Cl)nc1-c1ccc(N(Cc2ccccc2)C(=O)c2cc(C(F)(F)F)c(O)cc2O)cc1 | 6.00
Cc1cnc(-c2ccccc2)nc1-c1ccc(N(Cc2ccccc2)C(=O)c2ccc(O)cc2O)cc1 | 6.00
CS(=O)(=O)Nc1ccc(N(Cc2ccccc2)C(=O)c2ccc(O)cc2O)cc1 | 6.00
O=C(c1ccc(O)cc1O)N(Cc1ccccc1)c1ccc(-c2cnc3ccccc3n2)cc1 | 5.00
Cc1cc(N)ncc1-c1ccc(N(Cc2ccccc2)C(=O)c2ccc(O)cc2O)cc1 | 6.00
Cc1cnc(-c2cccnc2)nc1-c1ccc(N(Cc2ccccc2)C(=O)c2ccc(O)cc2O)cc1 | 6.00
Cc1nc(C(F)(F)F)nc(-c2ccc(N(Cc3ccccc3)C(=O)c3ccc(O)cc3O)cc2)c1C | 6.00
COc1ccc(CNC(=O)c2ccc(N(Cc3ccccc3)C(=O)c3ccc(O)cc3O)cc2)cc1 | 6.00
Cc1cc(-c2ccc(N(Cc3cccnc3)C(=O)c3ccc(O)cc3O)cc2)cnc1Cl | 6.00
CN(Cc1cccc(C(F)(F)F)c1)C(=O)c1ccc(N(Cc2ccccc2)C(=O)c2ccc(O)cc2O)cc1 | 5.00
O=C(c1ccc(O)cc1O)N(Cc1ccccc1)c1ccc(-c2nc3ccc(Cl)cc3cc2CO)cc1 | 6.00
Cc1cc2cc(Cl)ccc2nc1-c1ccc(N(Cc2ccsc2)C(=O)c2ccc(O)cc2O)cc1 | 6.00
Cc1cnc(NC(C)C)nc1-c1ccc(N(Cc2ccccc2)C(=O)c2ccc(O)cc2O)cc1 | 5.00
CC(=O)Nc1ccc(N(Cc2ccccc2)C(=O)c2ccc(O)cc2O)cc1 | 6.00
O=C(c1ccc(O)cc1O)N(Cc1cccnc1)c1ccc(-c2nc3ccccc3o2)cc1 | 6.00

Compound | pIC50
O=C(c1ccc(O)cc1O)N(Cc1ccccc1)c1ccc(-c2ncccc2CO)cc1 | 6.00
O=C(c1ccc(O)cc1O)N(Cc1ccsc1)c1ccc(-c2ncnc3ccsc23)cc1 | 6.00
Cc1cc(-c2ccc(N(Cc3ccccc3)C(=O)c3ccc(O)cc3O)cc2)nnc1Cl | 5.00
O=C(NC1CC1)c1ccc(N(Cc2cccnc2)C(=O)c2ccc(O)cc2O)cc1 | 6.00
CN(Cc1ccc(OC(F)(F)F)cc1)C(=O)c1ccc(N(Cc2ccsc2)C(=O)c2ccc(O)cc2O)cc1 | 6.00
CN(Cc1ccc2ccccc2n1)C(=O)c1ccc(N(Cc2ccsc2)C(=O)c2ccc(O)cc2O)cc1 | 7.00
O=C(c1ccc(O)cc1O)N(Cc1ccccc1)c1ccc(-c2nc(Cl)nn3cccc23)cc1 | 6.00
O=C(c1ccc(O)cc1O)N(Cc1cccnc1)c1ccc(-c2nc(-c3ccccc3)nc3ccccc23)cc1 | 6.00
CN(Cc1cccc2ccccc12)C(=O)c1ccc(N(Cc2ccccc2)C(=O)c2ccc(O)cc2O)cc1 | 6.00
CCOc1ccc2nc(-c3ccc(N(Cc4cccnc4)C(=O)c4ccc(O)cc4O)cc3)c(C)cc2c1 | 7.00
COc1cc2cc(Cl)ccc2nc1-c1ccc(N(Cc2ccsc2)C(=O)c2ccc(O)cc2O)cc1 | 7.00
O=C(Nc1ccc(N(Cc2ccccc2)C(=O)c2ccc(O)cc2O)cc1)NC1CCNCC1 | 5.00
Cc1cc(C(=O)N(Cc2ccccc2)c2ccc(-c3nc(Cl)ncc3C)cc2)c(O)cc1O | 7.00
Cc1ncc(C)c(-c2ccc(N(Cc3ccccc3)C(=O)c3cc(Cl)c(O)cc3O)cc2)n1 | 7.00
O=C(c1ccc(O)cc1O)N(Cc1ccccc1)c1ccc(-c2ccc(NC3CC3)nn2)cc1 | 7.00
CCCc1cncnc1-c1ccc(N(Cc2ccccc2)C(=O)c2ccc(O)cc2O)cc1 | 6.00
Cc1ccc(-c2ccc(N(Cc3cccnc3)C(=O)c3ccc(O)cc3O)cc2)c(Cl)c1 | 6.00
Cc1ccnnc1-c1ccc(N(Cc2ccccc2)C(=O)c2ccc(O)cc2O)cc1 | 7.00
O=C(c1ccc(O)cc1O)N(Cc1ccsc1)c1ccc(-c2nc(C(F)(F)F)ccc2C(F)(F)F)cc1 | 6.00

Second part, the molecule after the results:

pIC50 | Compound
8.00 | Cc1cnc(Cl)nc1-c1ccc(N(Cc2ccccc2)C(=O)c2cc(Cl)c(O)cc2O)cc1
8.00 | CN(Cc1ccc2nccnc2c1)C(=O)c1ccc(N(Cc2ccccc2)C(=O)c2ccc(O)cc2O)cc1
7.00 | Cc1cnc(Cl)nc1-c1ccc(N(Cc2ccsc2)C(=O)c2ccc(O)cc2O)cc1
7.00 | COc1ccc2nc(-c3ccc(N(Cc4cccnc4)C(=O)c4ccc(O)cc4O)cc3)c(C)cc2c1
7.00 | CN(C)C(=O)c1ccc(N(Cc2ccccc2)C(=O)c2ccc(O)cc2O)cc1
8.00 | O=C(c1ccc(O)cc1O)N(Cc1ccccc1)c1ccc(-c2nc(Cl)c3c(n2)CCSC3)cc1
7.00 | Cc1cc2ccccc2nc1-c1ccc(N(Cc2ccc(F)c(F)c2)C(=O)c2ccc(O)cc2O)cc1
7.00 | CN(Cc1ccnc2ccccc12)C(=O)c1ccc(N(Cc2cccnc2)C(=O)c2ccc(O)cc2O)cc1
7.00 | O=C(c1ccc(O)cc1O)N(Cc1ccsc1)c1ccc(-c2nc3ccccc3cc2CO)cc1
7.00 | CN(Cc1cccc2ncccc12)C(=O)c1ccc(N(Cc2ccccc2)C(=O)c2ccc(O)cc2O)cc1
7.00 | CN(Cc1cccc2ncccc12)C(=O)c1ccc(N(Cc2cccnc2)C(=O)c2ccc(O)cc2O)cc1
7.00 | Cc1nc(C(F)(F)F)nc(-c2ccc(N(Cc3ccsc3)C(=O)c3ccc(O)cc3O)cc2)c1C
8.00 | Cc1ccc(CN(C(=O)c2ccc(O)cc2O)c2ccc(-c3nc(C)ncc3C)cc2)cc1
7.00 | O=C(NCc1ccc(Cl)cc1)c1ccc(N(Cc2cccnc2)C(=O)c2ccc(O)cc2O)cc1
8.00 | Cc1ccc(C)c(-c2ccc(N(Cc3ccccc3)C(=O)c3ccc(O)cc3O)cc2)n1
7.00 | Cc1cc2cc(F)ccc2nc1-c1ccc(N(Cc2cccnc2)C(=O)c2ccc(O)cc2O)cc1
7.00 | CN(Cc1cccc2cnccc12)C(=O)c1ccc(N(Cc2ccccc2)C(=O)c2ccc(O)cc2O)cc1
7.00 | CN(Cc1cccs1)C(=O)c1ccc(N(Cc2ccsc2)C(=O)c2ccc(O)cc2O)cc1
7.00 | COc1ccc(CN(C)C(=O)c2ccc(N(Cc3ccccc3)C(=O)c3cc(Cl)c(O)cc3O)cc2)cc1
7.00 | Cc1cccnc1-c1ccc(N(Cc2cccnc2)C(=O)c2ccc(O)cc2O)cc1
7.00 | O=C(c1ccc(O)cc1O)N(Cc1cccnc1)c1ccc(-c2nc(Cl)nc3c2COCC3)cc1
8.00 | O=C(c1ccc(O)cc1O)N(Cc1cccnc1)c1ccc(-c2nc3ccc(Cl)cc3cc2CO)cc1
7.00 | CSc1nc2c(c(-c3ccc(N(Cc4cccnc4)C(=O)c4ccc(O)cc4O)cc3)n1)CCC2
7.00 | CSc1nc(-c2ccc(N(Cc3cccnc3)C(=O)c3ccc(O)cc3O)cc2)c2cc[nH]c2n1
8.00 | Cc1cc(S(=O)(=O)N2CCN(C)CC2)cnc1-c1ccc(N(Cc2ccsc2)C(=O)c2ccc(O)cc2O)cc1
8.00 | Cc1ncc(C)c(-c2ccc(N(Cc3cccnc3)C(=O)c3ccc(O)cc3O)cc2)n1

pIC50 | Compound
7.00 | COc1ccc2nc(-c3ccc(N(Cc4ccccc4)C(=O)c4ccc(O)cc4O)cc3)c(C)cc2c1
7.00 | Cc1csc2ncnc(-c3ccc(N(Cc4ccsc4)C(=O)c4ccc(O)cc4O)cc3)c12
7.00 | CN(Cc1cccs1)C(=O)c1ccc(N(Cc2cccnc2)C(=O)c2ccc(O)cc2O)cc1
7.00 | COc1ccc(CN(C)C(=O)c2ccc(N(Cc3ccccc3)C(=O)c3ccc(O)cc3O)cc2)cc1
8.00 | Cc1cc(S(=O)(=O)NCc2cccs2)cnc1-c1ccc(N(Cc2ccccc2)C(=O)c2ccc(O)cc2O)cc1
8.00 | Cc1cc(C(=O)N(Cc2ccsc2)c2ccc(C(=O)N(C)Cc3ccc4nccnc4c3)cc2)c(O)cc1O
7.00 | Cc1cnc(C)c(-c2ccc(N(Cc3ccccc3)C(=O)c3ccc(O)cc3O)cc2)n1
7.00 | Cc1cn(-c2ccc(-c3ccc(N(Cc4cccnc4)C(=O)c4ccc(O)cc4O)cc3)nn2)cn1
7.00 | CSc1ccc(CN(C(=O)c2ccc(O)cc2O)c2ccc(-c3nc4ccccc4cc3C)cc2)cc1
7.00 | Cc1cc2cc(Cl)ccc2nc1-c1ccc(N(Cc2cccnc2)C(=O)c2ccc(O)cc2O)cc1
7.00 | CNc1nccc(-c2ccc(N(Cc3cccnc3)C(=O)c3ccc(O)cc3O)cc2)n1
7.00 | O=C(c1ccc(O)cc1O)N(Cc1cccnc1)c1ccc(-c2ncnc3ccc(Cl)cc23)cc1
8.00 | Cc1ccc(CN(C(=O)c2ccc(O)cc2O)c2ccc(-c3nc4ccccc4cc3C)cc2)cc1
8.00 | CN(C)C(=O)c1ccc(N(Cc2cccnc2)C(=O)c2cc(Cl)c(O)cc2O)cc1
8.00 | Cc1nc(C(F)(F)F)nc(-c2ccc(N(Cc3cccnc3)C(=O)c3ccc(O)cc3O)cc2)c1C
7.00 | O=C(c1ccc(O)cc1O)N(Cc1ccccc1)c1ccc(-c2nc(-c3ccccc3)nc3ccccc23)cc1
7.00 | Cc1cc2ccccc2nc1-c1ccc(N(Cc2ccc(CN(C)C)cc2)C(=O)c2ccc(O)cc2O)cc1
7.00 | Cc1cc2ccccc2nc1-c1ccc(N(Cc2ccc(-c3ccccc3)cc2)C(=O)c2ccc(O)cc2O)cc1
7.00 | CC(=O)Nc1ccc(-c2ccc(N(Cc3cccnc3)C(=O)c3ccc(O)cc3O)cc2)c(C)c1
7.00 | Cc1cc(S(=O)(=O)N2CC(F)(F)C2)cnc1-c1ccc(N(Cc2ccsc2)C(=O)c2ccc(O)cc2O)cc1
7.00 | CN(Cc1ccc(OC(F)(F)F)cc1)C(=O)c1ccc(N(Cc2cccnc2)C(=O)c2ccc(O)cc2O)cc1
7.00 | CN(Cc1ccc2ncccc2c1)C(=O)c1ccc(N(Cc2ccccc2)C(=O)c2ccc(O)cc2O)cc1
7.00 | Cc1cc(Cl)nnc1-c1ccc(N(Cc2ccccc2)C(=O)c2ccc(O)cc2O)cc1
8.00 | Cc1cc(S(=O)(=O)N2CC(F)(F)C2)cnc1-c1ccc(N(Cc2cccnc2)C(=O)c2ccc(O)cc2O)cc1
8.00 | CC(=O)N1CCN(S(=O)(=O)c2cnc(-c3ccc(N(Cc4ccsc4)C(=O)c4ccc(O)cc4O)cc3)c(C)c2)CC1

Source: ChEMBL document CHEMBL3727364, “Resorcinol n-aryl amide compounds, for use as pyruvate dehydrogenase kinase inhibitors” (2015)
